Test results published in patent publication US10328135B2, “Method of obtaining cytolytic T cells by using mutant tumor epitopes” (priority 2010, dated 2019).

How the values were obtained:
Type in all cases: cell-based, human
CD-4+ cells = assay: NY-ESO-1 APL cross-presented mini-gene products, IFN-γ ELISA, CD-4+ cells (FIG. 8A)
Protocol: FIG. 8A. Native and superagonist CTL determinants can be distinguished in bead-based cross presentation assay. Oligonucleotides encoding NY-ESO-1157-170 were cloned into and expressed by pQE40 expression vectors. The mini-gene products were isolated and “fed” to immature dendritic cells as described in the Examples. NY-ESO-1157-170-specific CTL clones were used to detect the presence of the cross-presented mini-gene products (NY-ESO-1157-170). Induced IFN-γ expression was determined by standard sandwich ELISA. Synthetic wild-type peptide was used a positive control. […] Results for CD-4+ cells are shown.
FIG. 8A and FIG. 8B show the ability of several NY-ES0-1APL to stimulate CD-4^| fractions (FIG. 8A) and PBMC (FIG. 8B).

[1] = system: MART-126-35-specific CTL clone M26-H1; assay: Saturation mutagenesis APL screen: bead-based cross-presentation by immature dendritic cells, IFN-γ sandwich ELISA; settings: 200 μl bacterial cultures, 88 clones, CTL clone M26-H1, FIG. 2
[2] = system: A375 (HLA-A2+/NY-ESO-1+) melanoma cell line; assay: In vitro cytotoxicity assay (51Cr release) by polyclonal CTL lines generated with analog peptides; target A375
Protocol: (§1) Isolated cells were replicated using 30 ng/ml anti-CD3 antibody (OKT3) and IL-2 at 50 U/ml in the presence of irradiated feeder PBMC and LCL for 2 weeks. IL-2 was replenished every 2-3 days.
(§2) Target cells were labeled with 100 μCi of ^51Cr and co-cultured with effector cells for 4 hours at 37° C. plus 5% CO2. […] Released ^51Cr was measured with a gamma scintillation counter and percent specific lysis was determined by using the formula: percent specific release=(experimental release-spontaneous release)/(maximum release-spontaneous release). […]
(§3) “ND” is not done. T2 is a TAP-deficient cell line that expresses peptide-unbound HLA-A2 molecules unless pulsed extracellularly. […] Numbers represent the percentage specific lysis obtained from each target. T375 is a HLA-A2 positive/MART-1 negative cell line.

[3] = system: T2 cells pulsed with NY-ESO-1157-165; assay: In vitro cytotoxicity assay (51Cr release) by polyclonal CTL lines generated with analog peptides; target T2 pulsed with NY-ESO-1157-165 (negative control); settings: target T2 (pulsed with NYESO-1157-165)
Protocol: as §1, §2, §3

[4] = system: Mel 526 (HLA-A2+/MART-1+) melanoma cell line; assay: In vitro cytotoxicity assay (51Cr release) by polyclonal CTL lines generated with analog peptides; target Mel 526; settings: target Mel526
Protocol: as §1, §2, §3

[5] = system: T2 cells pulsed with 1 μM of MART-126-35; assay: In vitro cytotoxicity assay (51Cr release) by polyclonal CTL lines generated with analog peptides; target T2 pulsed with MART-126-35 (M26)
Protocol: as §1, §2, §3

[6] = CTL line from Healthy1, E/T 12.5
[7] = CTL line from MelPt-B, E/T 12.5
[8] = CTL line from MelPt-C, E/T 12.5
[9] = CTL line from MelPt-D, E/T 12.5
[10] = CTL line from MelPt-F, E/T 12.5

F170W: NY-ESO-1157-170 APL F170W (SLLMWITQCFLPVW)
Stimulation of CD-4+ cells (CD-4+ cells): most effective

A27M: APL clones of MART-126-35 containing methionine residues at P2; previously described superagonist
IFN-γ expression in P2 library screen of MART-126-35 [1]: greater IFN-γ expression than wild type MART-126-35

Q164S: NY-ESO-1157-170 APL Q164S (SLLMWITSCFLPVF)
Stimulation of CD-4+ cells (CD-4+ cells): most effective

MART-126-35L33M (EAAGIGIMTV; UniProt Q16655 26-35, looked up, variant L33M)
Percentage Specific Lysis from polyclonal CTL lines generated with the indicated peptide [2, 6]: 10%
Percentage Specific Lysis from polyclonal CTL lines generated with the indicated peptide ([2]; CTL line from Healthy1, E/T 25): 13%
Percentage Specific Lysis from polyclonal CTL lines generated with the indicated peptide ([2]; CTL line from Healthy1, E/T 50): 13%
Percentage Specific Lysis from polyclonal CTL lines generated with the indicated peptide [2, 7]: 9%
Percentage Specific Lysis from polyclonal CTL lines generated with the indicated peptide ([2]; CTL line from MelPt-B, E/T 25): 12%
Percentage Specific Lysis from polyclonal CTL lines generated with the indicated peptide ([2]; CTL line from MelPt-B, E/T 50): 13%
Percentage Specific Lysis from polyclonal CTL lines generated with the indicated peptide [2, 8]: 5%
Percentage Specific Lysis from polyclonal CTL lines generated with the indicated peptide ([2]; CTL line from MelPt-C, E/T 25): 2%
Percentage Specific Lysis from polyclonal CTL lines generated with the indicated peptide ([2]; CTL line from MelPt-C, E/T 50): 0%
Percentage Specific Lysis from polyclonal CTL lines generated with the indicated peptide [2, 9]: 6%
Percentage Specific Lysis from polyclonal CTL lines generated with the indicated peptide ([2]; CTL line from MelPt-D, E/T 25): 4%
Percentage Specific Lysis from polyclonal CTL lines generated with the indicated peptide ([2]; CTL line from MelPt-D, E/T 50): 2%
Percentage Specific Lysis from polyclonal CTL lines generated with the indicated peptide [2, 10]: 5%
Percentage Specific Lysis from polyclonal CTL lines generated with the indicated peptide ([2]; CTL line from MelPt-F, E/T 25): 3%
Percentage Specific Lysis from polyclonal CTL lines generated with the indicated peptide ([2]; CTL line from MelPt-F, E/T 50): 2%
Percentage Specific Lysis from polyclonal CTL lines generated with the indicated peptide [3, 6]: 5%
Percentage Specific Lysis from polyclonal CTL lines generated with the indicated peptide ([3]; CTL line from Healthy1, E/T 25): 6%
Percentage Specific Lysis from polyclonal CTL lines generated with the indicated peptide ([3]; CTL line from Healthy1, E/T 50): 2%
Percentage Specific Lysis from polyclonal CTL lines generated with the indicated peptide [3, 7]: 4%
Percentage Specific Lysis from polyclonal CTL lines generated with the indicated peptide ([3]; CTL line from MelPt-B, E/T 25): 2%
Percentage Specific Lysis from polyclonal CTL lines generated with the indicated peptide ([3]; CTL line from MelPt-B, E/T 50): 2%
Percentage Specific Lysis from polyclonal CTL lines generated with the indicated peptide [3, 8]: 11%
Percentage Specific Lysis from polyclonal CTL lines generated with the indicated peptide ([3]; CTL line from MelPt-C, E/T 25): 12%
Percentage Specific Lysis from polyclonal CTL lines generated with the indicated peptide ([3]; CTL line from MelPt-C, E/T 50): 9%
Percentage Specific Lysis from polyclonal CTL lines generated with the indicated peptide [3, 9]: 8%
Percentage Specific Lysis from polyclonal CTL lines generated with the indicated peptide ([3]; CTL line from MelPt-D, E/T 25): 11%
Percentage Specific Lysis from polyclonal CTL lines generated with the indicated peptide ([3]; CTL line from MelPt-D, E/T 50): 14%
Percentage Specific Lysis from polyclonal CTL lines generated with the indicated peptide [3, 10]: 22%
Percentage Specific Lysis from polyclonal CTL lines generated with the indicated peptide ([3]; CTL line from MelPt-F, E/T 25): 21%
Percentage Specific Lysis from polyclonal CTL lines generated with the indicated peptide ([3]; CTL line from MelPt-F, E/T 50): 23%
Percentage Specific Lysis from polyclonal CTL lines generated with the indicated peptide [4, 6]: 44%
Percentage Specific Lysis from polyclonal CTL lines generated with the indicated peptide ([4]; CTL line from Healthy1, E/T 25): 57%
Percentage Specific Lysis from polyclonal CTL lines generated with the indicated peptide ([4]; CTL line from Healthy1, E/T 50): 65%
Percentage Specific Lysis from polyclonal CTL lines generated with the indicated peptide [4, 7]: 58%
Percentage Specific Lysis from polyclonal CTL lines generated with the indicated peptide ([4]; CTL line from MelPt-B, E/T 25): 70%
Percentage Specific Lysis from polyclonal CTL lines generated with the indicated peptide ([4]; CTL line from MelPt-B, E/T 50): 80%
Percentage Specific Lysis from polyclonal CTL lines generated with the indicated peptide [4, 8]: 45%
Percentage Specific Lysis from polyclonal CTL lines generated with the indicated peptide ([4]; CTL line from MelPt-C, E/T 25): 52%
Percentage Specific Lysis from polyclonal CTL lines generated with the indicated peptide ([4]; CTL line from MelPt-C, E/T 50): 58%
Percentage Specific Lysis from polyclonal CTL lines generated with the indicated peptide [4, 9]: 45%
Percentage Specific Lysis from polyclonal CTL lines generated with the indicated peptide ([4]; CTL line from MelPt-D, E/T 25): 54%
Percentage Specific Lysis from polyclonal CTL lines generated with the indicated peptide ([4]; CTL line from MelPt-D, E/T 50): 57%
Percentage Specific Lysis from polyclonal CTL lines generated with the indicated peptide [4, 10]: 38%
Percentage Specific Lysis from polyclonal CTL lines generated with the indicated peptide ([4]; CTL line from MelPt-F, E/T 25): 42%
Percentage Specific Lysis from polyclonal CTL lines generated with the indicated peptide ([4]; CTL line from MelPt-F, E/T 50): 44%
Percentage Specific Lysis from polyclonal CTL lines generated with the indicated peptide [5, 6]: 38%
Percentage Specific Lysis from polyclonal CTL lines generated with the indicated peptide ([5]; CTL line from Healthy1, E/T 25): 49%
Percentage Specific Lysis from polyclonal CTL lines generated with the indicated peptide ([5]; CTL line from Healthy1, E/T 50): 57%
Percentage Specific Lysis from polyclonal CTL lines generated with the indicated peptide [5, 7]: 41%
Percentage Specific Lysis from polyclonal CTL lines generated with the indicated peptide ([5]; CTL line from MelPt-B, E/T 25): 52%
Percentage Specific Lysis from polyclonal CTL lines generated with the indicated peptide ([5]; CTL line from MelPt-B, E/T 50): 63%
Percentage Specific Lysis from polyclonal CTL lines generated with the indicated peptide [5, 8]: 76%
Percentage Specific Lysis from polyclonal CTL lines generated with the indicated peptide ([5]; CTL line from MelPt-C, E/T 25): 84%
Percentage Specific Lysis from polyclonal CTL lines generated with the indicated peptide ([5]; CTL line from MelPt-C, E/T 50): 91%
Percentage Specific Lysis from polyclonal CTL lines generated with the indicated peptide [5, 9]: 75%
Percentage Specific Lysis from polyclonal CTL lines generated with the indicated peptide ([5]; CTL line from MelPt-D, E/T 25): 84%
Percentage Specific Lysis from polyclonal CTL lines generated with the indicated peptide ([5]; CTL line from MelPt-D, E/T 50): 90%
Percentage Specific Lysis from polyclonal CTL lines generated with the indicated peptide [5, 10]: 65%
Percentage Specific Lysis from polyclonal CTL lines generated with the indicated peptide ([5]; CTL line from MelPt-F, E/T 25): 72%
Percentage Specific Lysis from polyclonal CTL lines generated with the indicated peptide ([5]; CTL line from MelPt-F, E/T 50): 70%

I162Q: NY-ESO-1157-170 APL I162Q (SLLMWQTQCFLPVF)
Stimulation of CD-4+ cells (CD-4+ cells): most effective
